Experimental findings from patent US20190352297A1, “SELECTIVE AURORA A KINASE INHIBITORS” (UNIVERSITAT BERN, priority 2017, published 2019) are described below.

Series [1] relates to HeLa Kyoto cells. Nature of the series: Chromosome misalignment during metaphase. The class given is cell-based, human. The following applies: for misaligned chromosomes: HeLa Kyoto cells. How it is done:
(§1) HeLa Kyoto cells were cultured in high-glucose DMEM with GlutaMAX (Life Technologies) media supplemented with 10% fetal calf serum (FCS) in a humidified 5% CO2 incubator at 37° C. For plasmid transfections, cells were seeded at 80-90% confluence. 4 μg of plasmid DNA in 100 μl OptiMEM and 4 μl of Lipofectamine 2000 (Life Technologies) in 100 μl OptiMEM were incubated in parallel for 5 minutes, mixed for 20 minutes and added to each well. All Aurora A clones were constructed using full-length Aurora A as a template with appropriate PCR primer pairs. […] GFP-Aurora AR137A and GFP-Aurora AW277A were engineered using a site directed mutagenesis kit (Agilent Technologies, no. 210515) with appropriate primers. For determining the mitotic index and the chromosome misalignment phenotype, cells were incubated with various concentrations of compounds for 20 h before analysis. Cells were likewise treated with 0.25 μM MLN8237 (Selleckchem, no. S1133) or 5 μM ZM447439 (Selleckchem, no. S1103). For flow cytometry analysis, 50 nM […] and 2.5 μM ZM447439 were used. For rescue experiments, HeLa Kyoto cells were first transfected with GFP-Aurora A, GFP-Aurora AR137A or GFP-Aurora AW277A for 20 h, followed by incubation with 9 for another 20 h before cells were fixed with cold methanol and stained. To assess the impact of compound 9 on cell cycle progression, DNA content was analyzed after propidium iodide staining using FACS (BD Accuri C6 flow cytometer).
For immunofluorescence, cells were fixed in cold methanol, washed in PBT (PBS supplemented with 0.05% Tween-20) and stained with the following primary antibodies: 1:200 rabbit anti-pT288 (Cell Signaling, C39D8), 1:200 rabbit anti-pH3S10 (Cell Signaling, D2C8), 1:500 mouse anti-α-tubulin (Transduction Laboratories, 612709), 1:300 mouse anti-GFP (MAB3580, Millipore), 1:200 anti-TPX2 (Santa Cruz Biotechnology, sc-32863), anti-Aurora A (Invitrogen, 458900). Secondary antibodies were anti-mouse conjugated to Alexa488 or Alexa568, as well as anti-rabbit conjugated to Alexa488 or Alexa568, all used at 1:500 (Invitrogen). Confocal images were acquired on a Zeiss LSM 710 confocal microscope equipped with a Axiocam MRm (B/VVW) CCD camera using a 63×NA 1.0 oil objective and processed in ImageJ and Adobe Photoshop, maintaining relative image intensities within a series.

Series [2] concerns HeLa Kyoto cells. Briefly: DNA content analysis by flow cytometry. The class given is cell-based, human. The following applies: 48 h, 9 even at 10 μM. How it is done:
as §1, with “For rescue experiments, HeLa Kyoto cells were first transfected with GFP-Aurora A, GFP-Aurora AR137A or GFP-Aurora AW277A for 20 h, followed by incubation with 9 for another 20 h before cells were fixed with cold methanol and stained.” left out
(In general: Flow cytometry measures light scatter and fluorescence of single cells or particles in a stream.)

Series [3] is described as follows: In vitro reactivity towards glutathione (GSH). The class given is physicochemical. The following applies: after 24 h with 5 mM GSH, pH 7.4, 37° C. How it is done: […] Reaction scheme and structures of modified analogs. b. LC chromatogram of the reaction mixture after t=0 h and t=14 h. […] 9-methylcarbazole (tret=2.44 min) was used as internal control. c. Concentration of compound 9 during the course of the reaction as determined by integration of the absorption peaks (at 310 nm) of compound 9 at tret=1.78 min. The average of two independent experiments is shown, SD is <5% for all data points. d. Aurora A inhibition in the HTRF biochemical assay. (d) Cellular pThr288 Aurora-A levels of cells incubated with 9 or rac-92 overnight at the indicated concentrations. The experiment was repeated twice and the error bars represent SD. […] Numbers represent average IC50±SD of two independent experiments.

The subject of series [4] is Aurora A localization, HeLa Kyoto cells. Briefly: Aurora A localization at the mitotic spindle (immunofluorescence). The following applies: overnight. The series is classed as cell-based, human. How it is done:
as §1
Secondary antibodies were anti-mouse conjugated to Alexa488 or Alexa568, as well as anti-rabbit conjugated to Alexa488 or Alexa568, all used at 1:500 (Invitrogen). Confocal images were acquired on a Zeiss LSM 710 confocal microscope equipped with a Axiocam MRm (B/VVW) CCD camera using a 63×NA 1.0 oil objective and processed in ImageJ and Adobe Photoshop, maintaining relative image intensities within a series.

In series [5] the target is T1, Aurora A (Trp277) (Homo sapiens, UniProt O14965).
T1 construct: human Aurora A kinase domain (residues 122-403 in the pET24-d vector); His-tag (cleaved yes); made in house; host or cells: E. coli BL21 (DE3) Rosetta
T1 sequence (O14965 122-403): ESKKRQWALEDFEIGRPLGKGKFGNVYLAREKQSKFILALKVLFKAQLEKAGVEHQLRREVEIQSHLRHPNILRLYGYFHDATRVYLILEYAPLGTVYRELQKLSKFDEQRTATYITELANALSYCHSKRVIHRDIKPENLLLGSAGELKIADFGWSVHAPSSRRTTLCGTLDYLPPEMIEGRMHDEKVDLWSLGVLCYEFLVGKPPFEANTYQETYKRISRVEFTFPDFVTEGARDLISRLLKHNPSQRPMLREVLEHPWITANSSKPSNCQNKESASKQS
Nature of the series: Intrinsic tryptophan fluorescence. The class given is binding. As for the experimental part: Binding experiments were performed by mixing Aurora A (500 nM, 375 nM, and 150 nM for 77, 9, and 88, respectively) with varying concentrations (0-100 μM) of the different compounds in buffer (final DMSO concentration 1%), followed by incubation for 15 min at room temperature. Tryptophan fluorescence spectra were recorded at room temperature using an Infinite M1000 Pro plate reader (Tecan) and Corning 96 well half area, flat bottom, non-binding surface, black polystyrene plates. Excitation occurred at 284 nm (bandwidth ±5 nm) and emission at 340 nm (bandwidth ±10 nm). The gain was calculated from the well with the highest protein concentration. Each measurement was done in triplicate.

Entries after “also recorded” stand apart in the source; their conditions may differ. Where two headings read alike, the source gives them in different places.

On to `CCc1ccc(N=C2SC(=Cc3ccnc(Nc4ccc(C(=O)O)cn4)c3)C(=O)N2C)cc1` [Compound 9], for which the misaligned chromosomes in series [1] (4 μM) is on record as ~20%; in series [1] (10 μM), ~80%; in series [1] (25 μM), ~85%. The EC50 – broadly, the concentration needed to bring the measured effect to its halfway point – in series [1] (cellular activity as summarised in text, read-out: cellular activity EC50) is > 1 µM; in series [1] (read-out: phenotypic EC50, defective chromosome alignment during metaphase), 6 µM. In series [2], the “accumulation of cells with 8N and 16N DNA contents” value is recorded as “did not occur”. Also, the “conversion to GSH adduct” value in series [3] stood at 50%. Further, the “Aurora A localization at spindle microtubules and centrosomes” value in series [4] is “notably displaced from the spindle microtubules; also recorded: impairs Aurora A localization at the spindle microtubules”. For the same compound, the “tryptophan fluorescence, environment of Trp277” value in series [5] was “perturbed the environment of Trp277”.
